# What was measured:
# anaerobic microorganisms = experiment: Example 14: number of colonies of anaerobic microorganisms in PYF culture of pig intestinal filtrate; assay type: cell-based, pigs
# Description: (§1) Pigs were acclimated for 1 week, and the contents of their large intestines were taken out. The contents were diluted 5-fold with an anaerobic phosphate buffer (50 mM, pH 6.5), and then filtrated through 4-layered gauze. One mL of the resulting filtrate was inoculated on a PYF medium (100 mL) with 1 w/v % sodium gluconate added thereto, and incubated in an anaerobic condition at 39° C.
# (§2) During incubation, 5 mL of a sterilized 10 w/v % aqueous solution of sodium gluconate were put into the medium at intervals of 48 hours.
# (§3) The culture without sodium gluconate and the culture with sodium gluconate added thereto were sampled on 0, 8, 24, 48, 96 and 144 hours in a germ-free condition, and the samples were diluted to 10^−5. 0.05 mL of each dilution were inoculated on BL agar media (manufactured by Nissui), and anaerobically incubated at 37° C. for 48 hours. The number of colonies of anaerobic microorganisms having grown in agar plates was counted (Table 7).
# Mitsuokella multiacidus [1] = experiment: Example 14: count of isolated strain in 144-hour culture; assay type: cell-based
# Description: as §1, §2, §3
# (§4) At the same time, according to the properties of the colonies thus grown, strains having grown only on the agar plate inoculated with the 144-hour sample of sodium gluconate-added culture were isolated, and they were counted and identified (Table 8).
# Megasphaera elsdenii [2] = experiment: as above; assay type: cell-based
# Description: as §1, §2, §3, §4
# Mitsuokella multiacidus [3] = experiment: Example 15: short-chain fatty acid production by isolated strain; assay type: cell-based
# Description: (§5) The strains Megasphaera elsdenii and Mitsuokella multiacidus having grown in Example 14 were anaerobically incubated in PYF media (100 mL) with 1% w/v sodium gluconate added thereto, at 39° C. for 24 hours. The cultures were analyzed on the concentration of the short-chain fatty acids (mM) therein in the same manner as in Example 12.
# Megasphaera elsdenii [4] = experiment: as above; assay type: cell-based
# Description: as §5
# [5] = tested on: new born broiler chicks (Chunky); experiment: Test Example 3: feeding / drinking water test in broiler chicks, 8 weeks; assay type: in vivo, chickens; conditions: 0.5% in feed and 0.14% in drinking water vs chicks not having taken sodium gluconate
# Description: The feeds of Example 10 and Comparative Example 4 and the drinking water prepared in Example 11 were fed to groups of new born broiler chicks (Chunky), each group being composed of 50 chicks (25 male chicks and 25 female chicks), continuously for 8 weeks. At the start of the feeding test, on two weeks, 4 weeks and 6 weeks after the start of the test, and at the end of the test, that is, five times in all, the chicks were weighed individually, and an increase in the body weight was calculated for every group. In each group, checked was the feed intake during the period between the days on which the body weight was measured, and the feed conversion ratio was calculated from the overall body weight increase and the overall feed intake.
# [6] = tested on: contents of pig large intestines; experiment: Example 13: fermentation gas generated in culture of pig large intestine contents; assay type: cell-based, pigs
# Description: The amount of fermentation gas generated in the cultivation of Example 12 was measured by putting a glass syringe equipped with an injection needle into a head space of the serum bottle, sucking the gas until normal pressure is reached and measuring the sucked gas by a syringe scale.
# The composition of the gas was analyzed for carbon dioxide, methane, hydrogen and hydrogen sulfide by TCD and FPD gas chromatography (Ushida, et al.; Jpn. J. Zootech. Sci., 53, 412–416, 1982, and Anim. Sci. Technol., 69, 571–575, 1998).
# [7] = tested on: contents of pig large intestines; experiment: Example 12: static culture of pig large intestine contents, acids and ammonia; assay type: cell-based, pigs
# Description: Three pigs were acclimated for 1 week, and the contents of their large intestines were taken out. The contents were diluted 5-fold with an anaerobic phosphate buffer (50 mM, pH 6.5), and then filtrated through 4-layered gauze. 25 mL of the resulting filtrate was put into serum bottles of 120 mL volume, and the gas phase therein was purged with a mixed gas of nitrogen/carbon dioxide (80/20). The bottles were sealed with butyl rubber stoppers and aluminum seals, and left for static culture at 39° C. for 24 hours (n=3).
# Prior to putting the intestinal filtrate into the serum bottles, 1 w/v % glucose (positive control) and 1 w/v % sodium gluconate were put in the bottles, except for an additive-free control (negative control).
# After the intestinal filtrate was thus cultivated, 1 mL of 6 N hydrochloric acid was added thereto to stop fermentation. The resulting cultures were analyzed as follows:
# The cultures were pre-treated according to the Ushida and Sakata's conditions (Anim. Sci. Technol., 69, 571–575, […]), and then were analyzed on the concentration of short-chain fatty acids, succinic acid and lactic acid therein by HPLC and the concentration of ammonia therein by the indophenol method (Weatherburn, Analytic Chem., 39, 971–974, 1967). Subtracting the concentration before cultivation from that after cultivation gives the amount (mM) generated through fermentation.
# piglets = experiment: Test Example 4: feeding test in piglets, 8 weeks, sodium gluconate dose series; assay type: in vivo, pigs; conditions: for Body Weight Increase ± S.D. / Feed Conversion Ratio ± S.D.: piglets about 20 kg, 8 weeks; for Body Weight Increase (index %) / Feed Conversion Ratio (index %): control with no additive = 100
# Text: To a feed for latter artificial milk suckling-stage piglets (manufactured by Nippon Kagaku Shiryo Kyokai) and to a feed for raising piglets (manufactured by Nippon Kagaku Shiryo Kyokai), added were 0.05, 0.1, 0.25, 0.5 and 1.0%, relative to the weight of the feeds, of sodium gluconate.
# The above-mentioned feeds were fed to groups of piglets (body weight: about 20 kg), each group being composed of 4 piglets (2 male piglets and 2 female piglets), continuously for 8 weeks (the feed for latter artificial milk for the former 2 weeks and the feed for raising piglets for the latter 6 weeks). During the period of the feeding test, each of the piglets was weighed every week, and an increase in the body weight was calculated for every group. In each group, checked was the feed intake during the period between the days on which the body weight was measured, and the feed conversion ratio was calculated.
# This test was repeated 10 times for the group not having taken sodium gluconate and the group having taken 0.5% sodium gluconate, but 5 times for the other groups having taken sodium gluconate in different concentrations. The obtained body weight increases and the feed conversion ratios were averaged for every group.
# [8] = 144-hour sample of sodium gluconate-added culture
# [9] = PYF medium with 1% w/v sodium gluconate, 39° C., 24 hours
# [10] = sodium gluconate added minus control with no additive
# [11] = cultivation of Example 12, 1 w/v % additive, n=3
# [12] = after cultivation, 1 w/v % additive, 39° C., 24 hours, n=3
# [13] = index based on the data before cultivation of 100
# [14] = 0.05% added to feed, 5 test cycles
# [15] = 0.1% added to feed, 5 test cycles
# [16] = 0.25% added to feed, 5 test cycles
# [17] = 0.5% added to feed, 10 test cycles
# [18] = 1.0% added to feed, 5 test cycles
compound,measurement,setting,value
"O=C([O-])[C@H](O)[C@@H](O)[C@H](O)[C@H](O)CO.[Na+] [Sodium Gluconate, sodium gluconate]",number of anaerobic microorganisms,"anaerobic microorganisms; 0 hrs after start of incubation, 1 w/v % in PYF medium, 39° C.",<6.3 logarithmic number of the cells in 1 g of culture
same,number of anaerobic microorganisms,anaerobic microorganisms; 8 hrs after start of incubation,8.9 logarithmic number of the cells in 1 g of culture
same,number of anaerobic microorganisms,anaerobic microorganisms; 24 hrs after start of incubation,10.7 logarithmic number of the cells in 1 g of culture
same,number of anaerobic microorganisms,anaerobic microorganisms; 48 hrs after start of incubation,8.7 logarithmic number of the cells in 1 g of culture
same,number of anaerobic microorganisms,anaerobic microorganisms; 96 hrs after start of incubation,10.4 logarithmic number of the cells in 1 g of culture
same,number of anaerobic microorganisms,anaerobic microorganisms; 144 hrs after start of incubation,7.7 logarithmic number of the cells in 1 g of culture
same,total number of anaerobic microorganisms,anaerobic microorganisms; in words,increased
same,number of Mitsuokella multiacidus,Mitsuokella multiacidus [1]; [8],7.2 logarithmic number of the cells in 1 g of culture
same,Mitsuokella multiacidus number,Mitsuokella multiacidus [1]; in words,observed to increase
same,number of Megasphaera elsdenii,Megasphaera elsdenii [2]; [8],6.4 logarithmic number of the cells in 1 g of culture
same,Megasphaera elsdenii number,Megasphaera elsdenii [2]; in words,observed to increase
same,Acetic Acid,Mitsuokella multiacidus [3]; [9],9.9 mM
same,Butyric Acid,Mitsuokella multiacidus [3]; [9],1.0 mM
same,Propionic Acid,Mitsuokella multiacidus [3]; [9],43.1 mM
same,short-chain fatty acids produced by Mitsuokella multiacidus utilizing sodium gluconate,Mitsuokella multiacidus [3]; in words,produced a lot of acetic acid and propionic acid
same,"Acetic Acid, Difference",Mitsuokella multiacidus [3]; [10],7.0 mM
same,"Butyric Acid, Difference",Mitsuokella multiacidus [3]; [10],0.7 mM
same,"Propionic Acid, Difference",Mitsuokella multiacidus [3]; [10],36.1 mM
same,Acetic Acid,Megasphaera elsdenii [4]; [9],8.7 mM
same,Butyric Acid,Megasphaera elsdenii [4]; [9],4.9 mM
same,Propionic Acid,Megasphaera elsdenii [4]; [9],0.8 mM
same,short-chain fatty acids produced by Megasphaera elsdenii utilizing sodium gluconate,Megasphaera elsdenii [4]; in words,produced a lot of acetic acid and butyric acid
same,"Acetic Acid, Difference",Megasphaera elsdenii [4]; [10],2.9 mM
same,"Butyric Acid, Difference",Megasphaera elsdenii [4]; [10],3.5 mM
same,"Propionic Acid, Difference",Megasphaera elsdenii [4]; [10],-0.8 mM
same,feed efficiency improved by,[5],6%
same,Carbon Dioxide,[6]; [11],4330 µL/g
same,Hydrogen,[6]; [11],211.99 µL/g
same,Hydrogen Sulfide,[6]; [11],0.09 µL/g
same,Methane,[6]; [11],30 µL/g
same,Total Gas,[6]; [11],6880 µL/g
same,hydrogen sulfide in the cultures,"[6]; in words, compared with cultures with no additives",greatly reduced
same,Acetic Acid,[7]; [12],161.90 mM
same,Ammonia,[7]; [12],5.79 mM
same,Butyric Acid,[7]; [12],70.36 mM
same,Lactic Acid,[7]; [12],0 mM
same,Propionic Acid,[7]; [12],103.25 mM
same,Succinic Acid,[7]; [12],0 mM
same,"lactic acid, succinic acid and ammonia in the cultures",[7]; in words,greatly reduce
same,"concentration of acetic acid, propionic acid and butyric acid in the cultures","[7]; in words, compared with cultures without sodium gluconate",greatly increased
same,Acetic Acid (index),[7]; [13],(404)
same,Ammonia (index),[7]; [13],(74)
same,Butyric Acid (index),[7]; [13],(1305)
same,Lactic Acid (index),[7]; [13],(0)
same,Propionic Acid (index),[7]; [13],(941)
same,Succinic Acid (index),[7]; [13],(0)
same,Body Weight Increase ± S.D.,piglets; [14],39.96 ± 5.83 kg
same,Feed Conversion Ratio ± S.D.,piglets; [14],2.62 ± 0.15
same,Body Weight Increase (index %),piglets; 0.05% added to feed,(104) %
same,Feed Conversion Ratio (index %),piglets; 0.05% added to feed,(97) %
same,Body Weight Increase ± S.D.,piglets; [15],40.92 ± 4.49 kg
same,Feed Conversion Ratio ± S.D.,piglets; [15],2.58 ± 0.11
same,Body Weight Increase (index %),piglets; 0.1% added to feed,(106) %
same,Feed Conversion Ratio (index %),piglets; 0.1% added to feed,(96) %
same,Body Weight Increase ± S.D.,piglets; [16],41.26 ± 3.44 kg
same,Feed Conversion Ratio ± S.D.,piglets; [16],2.55 ± 0.17
same,Body Weight Increase (index %),piglets; 0.25% added to feed,(107) %
same,Feed Conversion Ratio (index %),piglets; 0.25% added to feed,(94) %
same,Body Weight Increase ± S.D.,piglets; [17],40.43 ± 4.40 kg
same,Feed Conversion Ratio ± S.D.,piglets; [17],2.63 ± 0.12
same,Body Weight Increase (index %),piglets; 0.5% added to feed,(105) %
same,Feed Conversion Ratio (index %),piglets; 0.5% added to feed,(97) %
same,Body Weight Increase ± S.D.,piglets; [18],39.28 ± 2.58 kg
same,Feed Conversion Ratio ± S.D.,piglets; [18],2.74 ± 0.05
same,Body Weight Increase (index %),piglets; 1.0% added to feed,(102) %
same,Feed Conversion Ratio (index %),piglets; 1.0% added to feed,(101) %

# — US7186544B2, “Agents for promoting fattening of animals and method of promoting fattening” (Fuso Chemical Co., Ltd., priority 1999, dated 2007)
